Measured values: patent EP2027081B1, “THERAPEUTIC PROSTAGLANDIN COMPOUNDS FOR THE TREATMENT OF GLAUCOMA” (ALLERGAN, INC., priority 2006, dated 2007)

What was measured:
[1] = molecular target: T1, hDP/Gqs5 (Homo sapiens, UniProt Q13258); assay: FLIPR calcium signal study, HEK-293(EBNA) cells; type: cell-based; details: Table 1; NA means not active; read-out: FUNCTIONAL (Ca2+, EC50, nM) HDP
T1 construct: expressed in transfected cells; host or cells: HEK-293(EBNA)
Protocol: HEK-293(EBNA) cells, stably expressing one type or subtype of recombinant human prostaglandin receptors (prostaglandin receptors expressed: hDP/Gqs5; hEP1; hEP2/Gqs5; hEP3A/Gqi5; hEP4/Gqs5; hFP; hIP; hTP), were cultured in 100 mm culture dishes in high-glucose DMEM medium containing 10% fetal bovine serum, 2 mM I-glutamine, 250 µg/ml geneticin (G418) and 200 µg/ml hygromycin B as selection markers, and 100 units/ml penicillin G, 100 µg/ml streptomycin and 0.25 µg/ml amphotericin B.
(§1) Cells were seeded at a density of 5x10^4 cells per well in Biocoat® Poly-D-lysine-coated black-wall, clear-bottom 96-well plates (Becton-Dickinson) and allowed to attach overnight in an incubator at 37 °C. Cells were then washed two times with HBSS-HEPES buffer (Hanks Balanced Salt Solution without bicarbonate and phenol red, 20 mM HEPES, pH 7.4) using a Denley Cellwash plate washer (Labsystems). After 45 minutes of dye-loading in the dark, using the calcium-sensitive dye Fluo-4 AM at a final concentration of 2 µM, plates were washed four times with HBSS-HEPES buffer to remove excess dye leaving 100 µl in each well. Plates were re-equilibrated to 37 °C for a few minutes.
Cells were excited with an Argon laser at 488 nm, and emission was measured through a 510-570 nm bandwidth emission filter (FLIPR™, Molecular Devices, Sunnyvale, CA). Drug solution was added in a 50 µl volume to each well to give the desired final concentration. The peak increase in fluorescence intensity was recorded for each well. On each plate, four wells each served as negative (HBSS-HEPES buffer) and positive controls (standard agonists: BW245C (hDP); PGE2 (hEP1; hEP2/Gqs5; hEP3A/Gqi5; hEP4/Gqs5); PGF2α (hFP); carbacyclin (hIP); U-46619 (hTP), depending on receptor). The peak fluorescence change in each drug-containing well was then expressed relative to the controls.
(§2) Compounds were tested in a high-throughput (HTS) or concentration-response (CoRe) format. In the HTS format, forty-four compounds per plate were examined in duplicates at a concentration of 10^-5 M. To generate concentration-response curves, four compounds per plate were tested in duplicates in a concentration range between 10^-5 and 10^-11 M. The duplicate values were averaged. In either, HTS or CoRe format each compound was tested on at least 3 separate plates using cells from different passages to give an n ≥ 3.

[2] = molecular target: T2, hEP2/Gqs5 (Homo sapiens, UniProt P43116); assay: FLIPR calcium signal study, HEK-293(EBNA) cells; type: cell-based; details: Table 1; Ca2+ signal; NA means not active; read-out: FUNCTIONAL (Ca2+, EC50, nM) HEP 2
T2 construct: expressed in transfected cells; host or cells: HEK-293(EBNA)
T2 sequence (P43116 whole entry): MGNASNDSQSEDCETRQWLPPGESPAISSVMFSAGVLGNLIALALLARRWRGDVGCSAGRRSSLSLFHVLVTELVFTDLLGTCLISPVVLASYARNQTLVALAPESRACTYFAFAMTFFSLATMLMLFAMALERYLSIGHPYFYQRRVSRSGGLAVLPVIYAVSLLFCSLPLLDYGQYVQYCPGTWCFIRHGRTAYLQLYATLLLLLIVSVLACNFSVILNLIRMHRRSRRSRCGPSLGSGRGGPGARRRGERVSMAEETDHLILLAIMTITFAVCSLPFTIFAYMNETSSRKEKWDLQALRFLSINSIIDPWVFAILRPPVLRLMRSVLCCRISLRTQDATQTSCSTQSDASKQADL
Protocol: as §1
Cells were excited with an Argon laser at 488 nm, and emission was measured through a 510-570 nm bandwidth emission filter (FLIPR™, Molecular Devices, Sunnyvale, CA). […] The peak increase in fluorescence intensity was recorded for each well. […] The peak fluorescence change in each drug-containing well was then expressed relative to the controls.
as §2, with “averaged.” for “averaged. In either, HTS or CoRe format each compound was tested on at least 3 separate plates using cells from different passages to give an n ≥ 3.”

T1 sequence (Q13258 whole entry): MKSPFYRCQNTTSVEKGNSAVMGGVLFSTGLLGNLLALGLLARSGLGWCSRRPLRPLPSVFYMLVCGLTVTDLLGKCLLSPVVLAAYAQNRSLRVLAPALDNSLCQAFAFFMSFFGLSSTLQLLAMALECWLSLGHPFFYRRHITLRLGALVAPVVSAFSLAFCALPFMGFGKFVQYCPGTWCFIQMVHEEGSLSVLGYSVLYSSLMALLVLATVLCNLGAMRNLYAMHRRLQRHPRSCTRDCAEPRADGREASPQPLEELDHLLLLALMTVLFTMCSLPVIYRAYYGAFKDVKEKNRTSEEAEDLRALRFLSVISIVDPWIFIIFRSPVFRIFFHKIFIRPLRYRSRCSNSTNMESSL

**Q.** What does the source list for `CCCC1(C(O)c2ccc([C@H]3CCC(=O)[C@@H]3C/C=C\CCCC(=O)O)cc2)CCC1` (some centres unmarked) [Entry 6]?
**A.** EC50 [1]: > 10000 nM; EC50 [2]: 2870 nM
